The source of these data is ChEMBL document CHEMBL4627361, “Decades-old renin inhibitors are still struggling to find a niche in antihypertensive therapy. A fleeting look at the old and the promising new molecules” (Bioorg Med Chem, 2020).

Data set [1] in a line: Aqueous solubility of compound in pH 7.4. It is filed as physicochemical.
Data set [2] is described as follows: Half life in human. It is filed as ADME.
The nature of data set [3]: Protein binding in human plasma. The format is ADME, cell-free. Conditions: read-out: PPB (converted).
The nature of data set [4]: Octanol/water partition co-efficient, log P of compound at pH 7.4. The format is physicochemical.

Structures are written as SMILES. In brackets after ≈: the same amount, converted by molar mass.

What is called solubility is how much of the substance goes into solution per volume. For orientation: half-life means how long it takes for the measured level to halve. What is called logD is the decadic logarithm of the distribution of all forms, ionised or not, between an organic phase and buffer at a given pH. Lower therefore signals a more hydrophilic compound. In the case of `COCCCOc1cc(C[C@@H](C[C@H](N)[C@@H](O)C[C@H](C(=O)NCC(C)(C)C(N)=O)C(C)C)C(C)C)ccc1OC`, the concentration in solution in data set [1] (solubility) came to 350 mg/mL (≈ 634 mM). This molecule also gave a half-life in data set [2] of 24 h. Besides, in data set [3], the fraction unbound is 0.505. The same molecule returned a logD in data set [4] of 2.45.
